Measured values reported in patent US20090226455A1, “COMBINATION THERAPY WITH C-MET AND HER ANTAGONISTS” (Genentech, Inc., priority 2008, published 2009).

What was measured:
EBC-1 shMet-4.5 tumors = assay: EBC-1 shMet-4.5 NSCLC xenograft model, tumor growth inhibition; format: in vivo, nude mice (nu/nu); conditions: compared to sucrose control at day 29; pertuzumab 5 mg/kg IP once a week; Dox 1 mg/mL in 5% sucrose drinking water (induces c-met shRNA knockdown)
Procedure: Control antibodies mouse IgG2a isotype 10D9-1E11-1F12 (anti-Ragweed) antibody and the human IgG1 isotype hu5B6 (anti-gD) antibody were obtained from the Antibody Engineering Department at Genentech, Inc., in a clear liquid form and were diluted in 1×PBS. Doxycycline (Dox) was prepared fresh at 0.5 or 1 mg/mL in 5% sucrose water and was regularly exchanged every 3 days. In Dox studies, control animals were given 5% sucrose water that was exchanged every 3 days. Materials were stored in a refrigerator set to maintain a temperature range of 4° C. to 8° C. […]
To prepare cells for inoculation into mice, cells were trypsinized, washed with ten milliliters of sterile 1× phosphate buffered saline (PBS). A subset of cells was counted by trypan blue exclusion and the remainder of cells was resuspended in 100 μl of sterile 1× PBS to a concentration of 5×10^7 cells per milliliter. […] Tumors were monitored until they reached a mean volume of 200 mm^3.
Mice in Group 1 were treated with anti-Ragweed control antibody (5 mg/kg, IP, once a week for 5 weeks) and given 5% sucrose drinking water. […] Tumor volumes were monitored through day 29. […]
Tumor inhibition was plotted using KaleidaGraph 3.6 (Synergy Software; Reading, Pa.). Percent growth inhibition (% Inh) was calculated as follows: […]
Tumor incidence was determined by the number of measurable tumors in each group at the end of study. […]

advanced ovarian cancer = conditions: 3 subjects with advanced ovarian cancer treated; one subject; cited from earlier work

Compound | tumor inhibition (reduction in tumor growth) (EBC-1 shMet-4.5 tumors) [%] | clinical response (advanced ovarian cancer)
C[C@H]1c2cccc(O)c2C(=O)C2=C(O)[C@]3(O)C(=O)C(C(N)=O)=C(O)[C@@H](N(C)C)[C@@H]3[C@@H](O)[C@@H]21 [Dox, Doxycycline, reference compound] | 54 | –
pertuzumab: humanized antibody that inhibits the dimerization of HER2 with other HER receptors; light and heavy chain SEQ ID NOs 15 and 16 | 43.6 | durable partial response
